Test system: subjects with chronic ITP who completed 28 days of study treatment
Assay: Phase 2 6-month rollover study of E5501: effectiveness (durable, transient, overall platelet response, maintenance, steroid use, upward dose titration)
Assay type: in vivo, human
Conditions: for Decreased use of concomitant steroid medication by ≧50%, No / Decreased use of concomitant steroid medication by ≧50%, Yes / Permanently discontinued steroid use, No / Permanently discontinued steroid use, Yes: 6-month rollover, FAS subjects taking steroids at baseline; for subjects who required upward dose titration / durable response rate: 6-month treatment period; for Transient Platelet Response No, %: 'no' includes durable responders
Experimental: This study was a multicenter, parallel-group, rollover study of E5501 in subjects with chronic ITP who were enrolled in and completed 28 days' of study treatment. All subjects who completed the previous study and otherwise met the eligibility criteria for this rollover protocol were enrolled.
Subjects who rolled over from the previous study were treated for an additional 6 months after completing previous study.
Initial dose: Subjects who met the efficacy response in the previous study continued to receive their previous blinded dose at entry into this study.
Dose titration was performed in an open label fashion in 10 mg increments as follows: • Nonresponders, who received initial doses of open-label E5501 10 mg in the previous study, could have their dose increased in 10 mg increments every 14 days to a maximum of 40 mg/day in the absence of platelet response.
Subjects were also permitted to reduce their dose of ITP-directed concomitant therapy (e.g., steroids). The overall goal of any dose modification was to maintain the subject's peripheral platelet count above 50,000/mm^3 and to decrease the need for ITP-directed concomitant medications (if applicable). During any dose modification of study drug or ITP-directed concomitant medications, platelet counts were collected every week. After platelet counts stabilized, platelet count collection reverted to a biweekly schedule.
Assessments: Study subjects were evaluated for safety and efficacy (including platelet count) on day 1 and then biweekly while receiving treatment.
Two primary analysis populations were used to summarize safety and effectiveness: • Safety population: all subjects who received at least 1 dose of study drug and had at least 1 post-treatment safety assessment in either the previous or this study. All safety analyses were performed using this population. • Full Analysis Set (FAS): all subjects who participated in both studies and who had at least one post-treatment effectiveness assessment in this study. All efficacy analyses were performed using this population.
Secondary Endpoints: The secondary endpoints were markers of effectiveness, including: • 1. Changes in platelet count from baselines of the previous study and of this study by study visit; and • 2. Durable platelet response, defined as subjects who had at least 3 platelet count assessments in the last 14 weeks of the 24-week treatment period, and whose platelet count was at a response level for at least 75% of the time in the last 14 weeks during the 24-week treatment period, with no rescue medication used during the 24-week treatment period. Platelet response level was defined as ≧50,000/mm^3 for subjects whose baseline platelet count was <30,000/mm^3 in the previous study or an increase in baseline platelet count of ≧20,000/mm^3 for subjects receiving steroids whose baseline platelet count in the previous study was ≧30,000/mm^3 but <50,000/mm^3; • 3. Transient platelet response, defined as achievement of a response level for any 4 consecutive weeks during the 24-week treatment period without durable platelet response in the absence of any rescue medication; • 4. Overall platelet response (durable platelet response plus transient platelet response); • 5. Maintenance of platelet response, defined as subjects who were responders in the previous study (e.g., responders on day 28 of the previous study) who achieved a durable response in this study and had no upward dose titration of E5501 during this study; • 6. Permanent discontinuation of steroid use, defined as subjects who used steroid medication within the 2-week period before their first dose of study drug in this study, and for whom concomitant steroid medication was discontinued at least 8 weeks before the end of the treatment period; • 7. Reduction of steroid use by at least 50%. […]

[1] = FAS, 501-CL-003 Nonresponders (N = 28)
[2] = FAS, 501-CL-003 Responders (N = 25)
[3] = FAS, <3 Lines of Prior Therapy, E5501 Total, N assessed 18
[4] = FAS, <3 Lines of Prior Therapy, Non-Responders, N assessed 6
[5] = FAS, <3 Lines of Prior Therapy, Responders, N assessed 12
[6] = FAS, Baseline PC >15K/mm^3, E5501 Total, N assessed 38
[7] = FAS, Baseline PC >15K/mm^3, Non-Responders, N assessed 19

O=C(Nc1nc(-c2cc(Cl)cs2)c(N2CCN(C3CCCCC3)CC2)s1)c1cnc(N2CCC(C(=O)O)CC2)c(Cl)c1 [E5501, 1-(3-chloro-5-{[4-(4-chlorothiophen-2-yl)-5-(4-cyclohexylpiperazin-1-yl)thiazol-2-yl]carbamoyl}pyridine-2-yl)piperidine-4-carboxylic acid]
Decreased use of concomitant steroid medication by ≧50%, No (E5501 Total): 11 (45.8) n (%) | Decreased use of concomitant steroid medication by ≧50%, Yes (E5501 Total): 13 (54.2) n (%) | Permanently discontinued steroid use, No (E5501 Total): 16 (66.7) n (%) | Permanently discontinued steroid use, Yes (E5501 Total): 8 (33.3) n (%) | Decreased use of concomitant steroid medication by ≧50%, No (Nonresponders): 6 (50.0) n (%) | Decreased use of concomitant steroid medication by ≧50%, Yes (Nonresponders): 6 (50.0) n (%) | Permanently discontinued steroid use, No (Nonresponders): 8 (66.7) n (%) | Permanently discontinued steroid use, Yes (Nonresponders): 4 (33.3) n (%) | Decreased use of concomitant steroid medication by ≧50%, No (Responders): 5 (41.7) n (%) | Decreased use of concomitant steroid medication by ≧50%, Yes (Responders): 7 (58.3) n (%) | Permanently discontinued steroid use, No (Responders): 8 (66.7) n (%) | Permanently discontinued steroid use, Yes (Responders): 4 (33.3) n (%) | subjects who required upward dose titration (25 responders): 20% | subjects who required upward dose titration (28 non-responders): 75% | durable response rate (FAS, all subjects): 52.8% | durable response rate (FAS, non-responders in previous study): 35.7% | durable response rate (FAS, responders in previous study): 72.0% | subjects who achieved an overall platelet response after the titration (13 subjects who required and did receive a dose titration): 76.9% | median platelet counts maintained throughout the study (FAS): above 50,000 /mm^3 | Upward titration required and implemented, % of subjects (FAS, 501-CL-003 Nonresponders): (47.6) % | Upward titration required and implemented, n of subjects (FAS, 501-CL-003 Nonresponders): 10/21 | Upward titration required and implemented; subject achieved overall response, % of subjects (FAS, 501-CL-003 Nonresponders): (70.0) % | Upward titration required and implemented; subject achieved overall response, n of subjects (FAS, 501-CL-003 Nonresponders): 7/10 | Upward titration required, % of subjects [1]: (75.0) % | Upward titration required, n of subjects [1]: 21 | Upward titration required and implemented, % of subjects (FAS, 501-CL-003 Responders): (60.0) % | Upward titration required and implemented, n of subjects (FAS, 501-CL-003 Responders): 3/5 | Upward titration required and implemented; subject achieved overall response, % of subjects (FAS, 501-CL-003 Responders): (100.0) % | Upward titration required and implemented; subject achieved overall response, n of subjects (FAS, 501-CL-003 Responders): 3/3 | Upward titration required, % of subjects [2]: (20.0) % | Upward titration required, n of subjects [2]: 5 | Durable Platelet Response No, % (FAS, E5501 Total (N=53)): (47.2) % | Durable Platelet Response Yes, % (FAS, E5501 Total (N=53)): (52.8) % | Transient Platelet Response Yes, % (FAS, E5501 Total (N=53)): (22.6) % | With Overall Response No, % (FAS, E5501 Total (N=53)): (24.5) % | With Overall Response Yes, % (FAS, E5501 Total (N=53)): (75.5) % | Transient Platelet Response No, % (FAS, E5501 Total (N=53)): (77.4) % | Durable Platelet Response No, % (FAS, Non-Responders (N=28)): (64.3) % | Durable Platelet Response Yes, % (FAS, Non-Responders (N=28)): (35.7) % | Transient Platelet Response Yes, % (FAS, Non-Responders (N=28)): (28.6) % | With Overall Response No, % (FAS, Non-Responders (N=28)): (35.7) % | With Overall Response Yes, % (FAS, Non-Responders (N=28)): (64.3) % | Transient Platelet Response No, % (FAS, Non-Responders (N=28)): (71.4) % | Durable Platelet Response No, % (FAS, Responders (N=25)): (28.0) % | Durable Platelet Response Yes, % (FAS, Responders (N=25)): (72.0) % | Transient Platelet Response Yes, % (FAS, Responders (N=25)): (16.0) % | With Overall Response No, % (FAS, Responders (N=25)): (12.0) % | With Overall Response Yes, % (FAS, Responders (N=25)): (88.0) % | Transient Platelet Response No, % (FAS, Responders (N=25)): (84.0) % | Upward titration required and implemented, % of subjects (FAS, Total): (50.0) % | Upward titration required and implemented, n of subjects (FAS, Total): 13/26 | Upward titration required and implemented; subject achieved overall response, % of subjects (FAS, Total): (76.9) % | Upward titration required and implemented; subject achieved overall response, n of subjects (FAS, Total): 10/13 | Upward titration required, % of subjects (FAS, Total (N = 53)): (49.0) % | Upward titration required, n of subjects (FAS, Total (N = 53)): 26 | Durable Platelet Response, n (%) with response [3]: 12 (66.7) n (%) | Overall Platelet Response, n (%) with response [3]: 15 (83.3) n (%) | Durable Platelet Response, n (%) with response [4]: 3 (50.0) n (%) | Overall Platelet Response, n (%) with response [4]: 4 (66.7) n (%) | Durable Platelet Response, n (%) with response [5]: 9 (75.0) n (%) | Overall Platelet Response, n (%) with response [5]: 11 (91.7) n (%) | Durable Platelet Response, n (%) with response [6]: 24 (63.2) n (%) | Overall Platelet Response, n (%) with response [6]: 33 (86.8) n (%) | Durable Platelet Response, n (%) with response [7]: 9 (47.4) n (%) | Overall Platelet Response, n (%) with response [7]: 15 (78.9) n (%)

From patent publication US20110166112A1, “METHOD FOR STIMULATING PLATELET PRODUCTION” (Eisai, Inc., priority 2009, published 2011)
